Consider one molecule from patent US20060100290A1, “Treatment of allergic rhinitis and asthma” (priority 2003, published 2006).

Where only a bound is given, the exact number is not on record here.

The test deals with allergic rhinitis and asthma. Description: Treatment of human patients with allergic rhinitis and/or asthma with daily atomoxetine (case reports, Examples 1-4). Type of test: in vivo, humans. Here is the method:
A person with a 24 year history of severe allergic rhinitis, immunotherapy failure, and a 10 year history of moderate persistent asthma was given a 100 mg daily dose of atomoxetine. […]
Here, as is known in the art, FEV1 percent is the ratio of FEV1 to the predicted FEV1, which is obtained from standardized tables based on age, weight, height, and sex; FEV1 is the volume of air that is forcefully exhaled from the lungs in one second.

The mark [1] stands for this setting: Example 3: person, allergic rhinitis, 80 mg daily dose.

Take `CNCC[C@@H](Oc1ccccc1C)c1ccccc1.Cl` [atomoxetine, (R)-(−)-N-methyl-3-(2-methylphenoxy)-3-phenylpropylamine]: the “symptom status on atomoxetine mono therapy” value reads like this: (Example 1: person, 60 mg daily dose, monitored during the following year) “remained symptom free during the entire period of monitoring”; (Example 2: person, 100 mg daily dose, monitored during the following 10 months) “remained symptom free during the entire period of monitoring”. The “time until able to wean all traditional allergic rhinitis and asthma treatments” value is “three” (Example 1: person, allergic rhinitis and moderate persistent asthma, 60 mg daily dose); at most 10 days (Example 2: person, severe allergic rhinitis and moderate persistent asthma, 100 mg daily dose); at most 10 days (Example 4: person, allergic rhinitis and moderate persistent asthma, 80 mg daily dose). The “time remained symptom free with atomoxetine mono therapy” value reads like this: under setting [1], “at least nine”; (Example 4: person, 80 mg daily dose) “at least 7 months”. Also, the “time until able to wean all traditional allergic rhinitis treatments” value under setting [1] is recorded as at most 7 days. Moreover, the “FEV1 percent (ratio of FEV1 to predicted FEV1), pulmonary function test” value (Example 4: person, 80 mg daily dose, after 6 weeks of atomoxetine mono therapy, 68% on traditional treatments before) is reported as 93%.
